Data on 17 molecules can be found in US20220274965A1, “ANTIVIRAL AGENTS AND USES THEREOF” (GRIFFITH UNIVERSITY, priority 2019, published 2022).

Molecules are shown by their SMILES. Where two headings read alike, the source gives them in different places.

Holding throughout (format): biochemical
One test relates to hPIV-1 strain C35. Put plainly: Haemagglutination inhibition (HI) assay with human red blood cells. To be noted: hPIV1 C35.
Test [1] concerns hPIV-3 strain CI002 (clinical isolate). The test is described as above. The settings on record: hPIV3 CI002.
Test [2] addresses hPIV-3 strain C243 neuraminidase (UniProt P08492, species not given/STRAIN_C243).
For test [3], the target named is hPIV-3 strain CI002 (clinical isolate) neuraminidase (UniProt P08492, species not given/STRAIN_CI002). To be noted: hPIV3 CI002; read-out: NI IC50.
hPIV-3 strain CI002 (clinical isolate) neuraminidase, sequence (P08492 whole entry, change not shown): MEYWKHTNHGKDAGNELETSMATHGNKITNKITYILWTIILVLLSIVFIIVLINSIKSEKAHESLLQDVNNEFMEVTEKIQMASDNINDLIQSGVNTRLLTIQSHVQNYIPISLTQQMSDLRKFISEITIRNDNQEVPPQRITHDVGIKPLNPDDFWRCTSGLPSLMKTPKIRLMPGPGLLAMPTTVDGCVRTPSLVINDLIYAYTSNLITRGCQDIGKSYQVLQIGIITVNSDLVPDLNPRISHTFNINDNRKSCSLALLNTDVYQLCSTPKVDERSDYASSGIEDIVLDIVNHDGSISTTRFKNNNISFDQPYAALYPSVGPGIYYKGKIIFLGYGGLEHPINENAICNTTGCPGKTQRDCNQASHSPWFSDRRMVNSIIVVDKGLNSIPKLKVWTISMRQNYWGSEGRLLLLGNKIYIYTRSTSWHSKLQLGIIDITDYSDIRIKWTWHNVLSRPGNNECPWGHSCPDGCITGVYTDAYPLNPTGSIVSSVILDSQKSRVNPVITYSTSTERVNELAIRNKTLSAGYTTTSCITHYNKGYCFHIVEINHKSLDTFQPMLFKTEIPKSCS
For the next test, the system named is hPIV-3 strain JS. Put plainly: Haemagglutination inhibition (HI) assay with human red blood cells. To be noted: hPIV3 JS.
[4] abbreviates: hPIV3 C243, Table 2, read-out: NI IC50.
The mark [5] stands for this setting: hPIV-3 strain C243, Table 1, read-out: NI (IC50).

hPIV-3 strain C243 neuraminidase, sequence (P08492 whole entry, change not shown): as above

In the case of `O=C(O)C1=C[C@H](n2cc3c(Br)cccc3n2)[C@@H](NC(=O)C(F)(F)F)[C@H]([C@H](O)[C@H](O)CO)O1`, the IC50 came to 4.94 µM in the test on hPIV-1 strain C35, 7.41 µM in test [1], 3.95 µM in test [2] (setting [4]) and 8.87 µM in test [3].

In the case of `O=C(O)C1=C[C@H](n2cc3ccc(F)cc3n2)[C@@H](NC(=O)C(F)(F)F)[C@H]([C@H](O)[C@H](O)CO)O1`, the IC50 with hPIV-1 strain C35 was 133 µM; in test [1], 22.2 µM; in test [2] (setting [4]), 12.9 µM; in test [3], 103 µM.

Turning to `CC(=O)N[C@H]1[C@H]([C@H](O)[C@H](O)CO)OC(C(=O)O)=C[C@@H]1n1cc2ccc3ccccc3c2n1` [IE1530-65], the 50% inhibitory concentration (IC50) in test [2] (setting [5]) was found to be 10.2 µM. The same measure, in the same setting: to `CC(=O)N[C@H]1[C@H]([C@H](O)[C@H](O)CO)OC(C(=O)O)=C[C@@H]1n1cc2ccccc2n1` [IE1530-66] belongs 92.8 µM; to `O=C(O)C1=C[C@H](n2cc3ccc4ccccc4c3n2)[C@@H](NC(=O)C(F)(F)F)[C@H]([C@H](O)[C@H](O)CO)O1` [IE1530-69], 2.84 µM. Still for that read-out and setting: to `O=C(O)C1=C[C@H](n2cc3ccccc3n2)[C@@H](NC(=O)C(F)(F)F)[C@H]([C@H](O)[C@H](O)CO)O1` [IE1530-74, Sodium 2,6-anhydro-3,4,5-trideoxy-4-(2H-indazol-2-yl)-5-(2,2,2-trifluoroacetamido)-D-glycero-D-galacto-non-2-enonate] belongs 9.37 µM; to `CC(=O)N[C@H]1[C@H]([C@H](O)[C@H](O)CO)OC(C(=O)O)=C[C@@H]1n1cc(-c2ccccc2NS(C)(=O)=O)nn1` [IE1778-12], 29.1 µM. On the same count and under the same terms, the same measure for `CC(=O)N[C@H]1[C@H]([C@H](O)[C@H](O)CO)OC(C(=O)O)=C[C@@H]1n1cc(-c2ccccc2NC(=O)CO)nn1` [IE1778-25]: 27.9 µM; for `CC(=O)N[C@H]1[C@H]([C@H](O)[C@H](O)CO)OC(C(=O)O)=C[C@@H]1n1nnc2c3ccccc3ccc21` [IE1778-64]: 4.13 µM; for `CC(=O)N[C@@H]1[C@@H]([C@@H](O)[C@@H](O)CO)OC(C(=O)O)=C[C@H]1n1cc(-c2ccccc2NC(=O)CCCCCn2cc(CCCc3cn(CCCCCC(=O)Nc4ccccc4-c4cn([C@H]5C=C(C(=O)O)O[C@@H]([C@H](O)[C@H](O)CO)[C@@H]5NC(C)=O)nn4)nn3)nn2)nn1` [IE1826-14]: 8.22 µM. Turning to `CC(=O)N[C@H]1[C@H]([C@H](O)[C@H](O)CO)OC(C(=O)O)=C[C@@H]1n1cc(-c2ccccc2NC(=O)CCCCCN=[N+]=[N-])nn1` [IE1826-23], the half-inhibitory concentration (IC50) in test [2] (setting [5]) is 69.2 µM. The same measure, in the same setting: to `CC(=O)N[C@@H]1[C@@H]([C@@H](O)[C@@H](O)CO)OC(C(=O)O)=C[C@H]1n1cc(-c2ccccc2NC(=O)CCCCc2cn(CCCCCC(=O)Nc3ccccc3-c3cn([C@H]4C=C(C(=O)O)O[C@@H]([C@H](O)[C@H](O)CO)[C@@H]4NC(C)=O)nn3)nn2)nn1` [IE1826-28] belongs 14 µM. Same read-out and setting: the same measure for `CC(=O)N[C@H]1[C@H]([C@H](O)[C@H](O)CO)OC(C(=O)O)=C[C@@H]1n1cc(-c2ccccc2NC(=O)CCCCCn2cc(-c3ccccc3)nn2)nn1` [IE1826-30]: 24.3 µM. Take `CC(=O)N[C@H]1[C@H]([C@H](O)[C@H](O)CO)OC(C(=O)O)=C[C@@H]1n1cc(-c2ccccc2NC(=O)CCCCCn2cc(C(=O)O)nn2)nn1` [IE1826-34]: in test [2] (setting [5]), the IC50 came out at 16.7 µM. The same measure, in the same setting: the same measure for `COCc1cn(CCCCCC(=O)Nc2ccccc2-c2cn([C@H]3C=C(C(=O)O)O[C@@H]([C@H](O)[C@H](O)CO)[C@@H]3NC(C)=O)nn2)nn1` [IE1826-38]: 24.2 µM; for `CC(=O)N[C@H]1[C@H]([C@H](O)[C@H](O)CO)OC(C(=O)O)=C[C@@H]1n1cc(-c2ccccc2NC(=O)CCCCCn2cc(CO)nn2)nn1` [IE1826-44]: 47.2 µM. Take `CC(=O)N[C@H]1[C@H]([C@H](O)[C@H](O)CO)OC(C(=O)O)=C[C@@H]1n1cc(-c2ccccc2NS(C)(=O)=O)nn1` [drawing 111]: the 50% inhibitory concentration (IC50) is over 200 µM with hPIV-1 strain C35, 60 µM in test [1] and 28 µM in the test on hPIV-3 strain JS.
